Consider 20 compounds from patent publication US8933018B2, “Boron containing polybasic bacterial efflux pump inhibitors and therapeutic uses thereof” (priority 2011, dated 2015).

The structures appear in SMILES notation.

This assay relates to P. aeruginosa, PAM1723, overexpressing the MexAB-OprM efflux pump. In kind it is cell-based, Pseudomonas aeruginosa. The note with it: lowest EPI concentration giving antibacterial activity with levofloxacin at 1/8 of its MIC, MHB, 20 h at 35° C. As to the method: All EPI compounds were readily soluble in water and stock solutions were prepared at a final concentration of 10 mg/ml. Stock solutions were further diluted, according to the needs of the particular assay, in Mueller Hinton Broth (MHB). Stock solution was stored at […].
The checkerboard assay was performed in microtiter plates. […] EPIs were diluted in the y-axis, each row containing a single concentration of an EPI. […] The assay was performed in MHB with a final bacterial inoculum of 5 times 10^5 CFU/ml (from an early-log phase culture). Microtiter plates were incubated during 20 h at 35° C. and were read using a microtiter plate reader (Molecular Devices) at 650 nm as well as visual observation using a microtiter plate-reading mirror.
As to `NCCN(CCN)C(=O)C[C@H](N)C(=O)N[C@@H](Cc1ccc(C(F)(F)F)cc1)C(=O)Nc1cc(B(O)O)cc(C(F)(F)F)c1` [Compound 11, 3-((S)-2-((S)-2-amino-4-(bis(2-aminoethyl)amino)-4-oxobutanamido)-3-(4-(trifluoromethyl)phenyl)propanamido)-5-(trifluoromethyl)phenylboronic acid], the “MPC8 (Minimum Potentiating Concentration)” value (“MPC8” below) was “B (B = MPC8 of 2.5 μg/ml to less than 10 μg/mL.)”.
`NCCN(CCN)C(=O)CC[C@H](N)C(=O)N[C@H](CCC1CCCCC1)C(=O)Nc1cc(B(O)O)cc(C(F)(F)F)c1` [Compound 12, 3-((R)-2-((S)-2-amino-5-(bis(2-aminoethyl)amino)-5-oxopentanamido)-4-cyclohexylbutanamido)-5-(trifluoromethyl)phenylboronic acid]: the “MPC8” value is on record as “A (A = MPC8 of less than 2.5 μg/mL.)”.
As for `NCCN(CCN)C(=O)CC[C@H](N)C(=O)N[C@H](CCc1ccc(C(F)(F)F)cc1)C(=O)Nc1cc(B(O)O)cc(C(F)(F)F)c1` [Compound 13, 3-((R)-2-((S)-2-amino-5-(bis(2-aminoethyl)amino)-5-oxopentanamido)-4-(4-(trifluoromethyl)phenyl)butanamido)-5-(trifluoromethyl)phenylboronic acid], the entry is “B (B = MPC8 of 2.5 μg/ml to less than 10 μg/mL.)”; as for `NCCN(CCN)C(=O)CC[C@H](N)C(=O)N[C@H](Cc1ccc(C(F)(F)F)cc1)C(=O)Nc1cc(B(O)O)cc(C(F)(F)F)c1` [Compound 15, 3-((R)-2-((S)-2-amino-5-(bis(2-aminoethyl)amino)-5-oxopentanamido)-3-(4-(trifluoromethyl)phenyl)propanamido)-5-(trifluoromethyl)phenylboronic acid], “B (B = MPC8 of 2.5 μg/ml to less than 10 μg/mL.)”; as for `NCCN(CCN)C(=O)CC[C@H](N)C(=O)N[C@H](Cc1ccc(C(F)(F)F)cc1)C(=O)Nc1ccc(C(F)(F)F)c(B(O)O)c1` [Compound 16, 5-((R)-2-((S)-2-amino-5-(bis(2-aminoethyl)amino)-5-oxopentanamido)-3-(4-(trifluoromethyl)phenyl)propanamido)-2-(trifluoromethyl)phenylboronic acid], “C (C = MPC8 of 10 μg/mL or greater.)”.
Take `NCCN(CCN)C(=O)CC[C@H](N)C(=O)N[C@H](Cc1ccc(C(F)(F)F)cc1)C(=O)Nc1ccc(B(O)O)c(C(F)(F)F)c1` [Compound 17, 4-((R)-2-((S)-2-amino-5-(bis(2-aminoethyl)amino)-5-oxopentanamido)-3-(4-(trifluoromethyl)phenyl)propanamido)-2-(trifluoromethyl)phenylboronic acid]: the “MPC8” value is recorded as “C (C = MPC8 of 10 μg/mL or greater.)”.
On to `N[C@@H]1C[C@H](N)CN(C(=O)CC[C@H](N)C(=O)N[C@H](Cc2ccc(C(F)(F)F)cc2)C(=O)Nc2cc(B(O)O)cc(C(F)(F)F)c2)C1` [Compound 18, 3-((R)-2-((S)-2-amino-5-((3R,5S)-3,5-diaminopiperidin-1-yl)-5-oxopentanamido)-3-(4-(trifluoromethyl)phenyl)propanamido)-5-(trifluoromethyl)phenylboronic acid], for which the “MPC8” value is on record as “B (B = MPC8 of 2.5 μg/ml to less than 10 μg/mL.)”.
On to `N[C@@H]1CC(NC(=O)CC[C@H](N)C(=O)N[C@H](Cc2ccc(C(F)(F)F)cc2)C(=O)Nc2cc(B(O)O)cc(C(F)(F)F)c2)C[C@H](N)C1` (stereo partly drawn) [Compound 19, 3-((R)-2-((S)-2-amino-5-((1R,3R,5S)-3,5-diaminocyclohexylamino)-5-oxopentanamido)-3-(4-(trifluoromethyl)phenyl)propanamido)-5-(trifluoromethyl)phenylboronic acid], for which the “MPC8” value is given as “B (B = MPC8 of 2.5 μg/ml to less than 10 μg/mL.)”.
As for `NCC(O)(CN)CNC(=O)CC[C@H](N)C(=O)N[C@H](CCc1ccc(C(F)(F)F)cc1)C(=O)Nc1cc(B(O)O)cc(C(F)(F)F)c1` [Compound 21, 3-((R)-2-((S)-2-amino-5-(3-amino-2-(aminomethyl)-2-hydroxypropylamino)-5-oxopentanamido)-4-(4-(trifluoromethyl)phenyl)butanamido)-5-(trifluoromethyl)phenylboronic acid], the “MPC8” value is given as “B (B = MPC8 of 2.5 μg/ml to less than 10 μg/mL.)”.
As to `NCC(O)(CN)CNC(=O)CC[C@H](N)C(=O)N[C@H](CCc1ccc(C(F)(F)F)cc1)C(=O)Nc1cccc(B(O)O)c1` [Compound 22, 3-((R)-2-((S)-2-amino-5-(3-amino-2-(aminomethyl)-2-hydroxypropylamino)-5-oxopentanamido)-4-(4-(trifluoromethyl)phenyl)butanamido) phenylboronic acid], the “MPC8” value is “B (B = MPC8 of 2.5 μg/ml to less than 10 μg/mL.)”.
Turning to `N[C@@H]1C[C@H](N)C[C@H](NC(=O)CC[C@H](N)C(=O)N[C@H](CCc2ccc(C(F)(F)F)cc2)C(=O)Nc2cccc(B(O)O)c2)C1` [Compound 23, 3-((R)-2-((S)-2-amino-5-((1S,3R,5S)-3,5-diaminocyclohexylamino)-5-oxopentanamido)-4-(4-(trifluoromethyl)phenyl)butanamido)phenylboronic acid], the “MPC8” value was “B (B = MPC8 of 2.5 μg/ml to less than 10 μg/mL.)”.
For the compound `N[C@@H]1C[C@H](N)CN(C(=O)CC[C@H](N)C(=O)N[C@H](CCc2ccc(C(F)(F)F)cc2)C(=O)Nc2cccc(B(O)O)c2)C1` [Compound 24, 3-((R)-2-((S)-2-amino-5-((3R,5S)-3,5-diaminopiperidin-1-yl)-5-oxopentanamido)-4-(4-(trifluoromethyl)phenyl)butanamido)phenylboronic acid], the “MPC8” value is recorded as “B (B = MPC8 of 2.5 μg/ml to less than 10 μg/mL.)”.
In the case of `NCCN(CCN)C(=O)CC[C@H](N)C(=O)N[C@H](CCc1ccc(C(F)(F)F)cc1)C(=O)Nc1cc(B(O)O)ccc1F` [Compound 25, 3-((R)-2-((S)-2-amino-5-(bis(2-aminoethyl)amino)-5-oxopentanamido)-4-(4-(trifluoromethyl)phenyl)butanamido)-4-fluorophenylboronic acid], the “MPC8” value is on record as “B (B = MPC8 of 2.5 μg/ml to less than 10 μg/mL.)”.
For `CC1(C)OB(O)c2cc(NC(=O)[C@@H](CCc3ccc(C(F)(F)F)cc3)NC(=O)[C@@H](N)CCC(=O)N(CCN)CCN)ccc21` [Compound 26, (S)-2-amino-N5,N5-bis(2-aminoethyl)-N1-((R)-1-(1-hydroxy-3,3-dimethyl-1,3-dihydrobenzo[c][1,2]oxaborol-6-ylamino)-1-oxo-4-(4-(trifluoromethyl)phenyl)butan-2-yl)pentanediamide], the “MPC8” value was “A (A = MPC8 of less than 2.5 μg/mL.)”.
In the case of `CC1(C)OB(O)c2cc(NC(=O)[C@@H](CCc3ccc(C(F)(F)F)cc3)NC(=O)[C@@H](N)CCC(=O)NCC(O)(CN)CN)ccc21` [Compound 27, (S)-2-amino-N5-(3-amino-2-(aminomethyl)-2-hydroxypropyl)-N1-((R)-1-(1-hydroxy-3,3-dimethyl-1,3-dihydrobenzo[c][1,2]oxaborol-6-ylamino)-1-oxo-4-(4-(trifluoromethyl)phenyl)butan-2-yl)pentanediamide], the “MPC8” value is reported as “B (B = MPC8 of 2.5 μg/ml to less than 10 μg/mL.)”.
With `NCCN(CCN)C(=O)CC[C@H](N)C(=O)N[C@H](CCc1ccc(C(F)(F)F)cc1)C(=O)Nc1cc(B(O)O)cc(F)c1F` [Compound 28, 3-((R)-2-((S)-2-amino-5-(bis(2-aminoethyl)amino)-5-oxopentanamido)-4-(4-(trifluoromethyl)phenyl)butanamido)-4,5-difluorophenylboronic acid], the “MPC8” value is on record as “A (A = MPC8 of less than 2.5 μg/mL.)”.
With `NCCN(CCN)C(=O)CC[C@H](N)C(=O)N[C@H](CCc1ccc(C(F)(F)F)cc1)C(=O)Nc1ccc(B(O)O)c(F)c1` [Compound 29, 4-((R)-2-((S)-2-amino-5-(bis(2-aminoethyl)amino)-5-oxopentanamido)-4-(4-(trifluoromethyl)phenyl)butanamido)-2-fluorophenylboronic acid], the “MPC8” value is “B (B = MPC8 of 2.5 μg/ml to less than 10 μg/mL.)”.
As for `NCCN(CCN)C(=O)CC[C@H](N)C(=O)N[C@H](CCc1ccc(C(F)(F)F)cc1)C(=O)Nc1cc(B(O)O)c(F)cc1F` [Compound 30, 5-((R)-2-((S)-2-amino-5-(bis(2-aminoethyl)amino)-5-oxopentanamido)-4-(4-(trifluoromethyl)phenyl)butanamido)-2,4-difluorophenylboronic acid], the “MPC8” value is “C (C = MPC8 of 10 μg/mL or greater.)”.
With `NCCN(CCN)C(=O)CC[C@H](N)C(=O)N[C@H](CCc1ccc(C(F)(F)F)cc1)C(=O)Nc1cc2c(c(C(F)(F)F)c1)COB2O` [Compound 31, (S)-2-amino-N5,N5-bis(2-aminoethyl)-N1-((R)-1-(1-hydroxy-4-(trifluoromethyl)-1,3-dihydrobenzo[c][1,2]oxaborol-6-ylamino)-1-oxo-4-(4-(trifluoromethyl)phenyl)butan-2-yl)pentanediamide], the “MPC8” value is “B (B = MPC8 of 2.5 μg/ml to less than 10 μg/mL.)”.
Take `NCCN(CCN)C(=O)CC[C@H](N)C(=O)N[C@H](CCc1ccc(C(F)(F)F)cc1)C(=O)Nc1ccc(F)c(B(O)O)c1` [Compound 32, 5-((R)-2-((S)-2-amino-5-(bis(2-aminoethyl)amino)-5-oxopentanamido)-4-(4-(trifluoromethyl)phenyl)butanamido)-2-fluorophenylboronic acid]: the “MPC8” value is reported as “B (B = MPC8 of 2.5 μg/ml to less than 10 μg/mL.)”.
